This assay has as its system respiratory syncytial virus Long strain. Description: cell protection assay (RSV-induced cytopathic effects, MTT staining). The format is cell-based. The protocol:
For cell protection assays, HEp-2 (ATCC CCL 23) cells were seeded in 96 well microtiter plates at 1.5×10^4 cells/100 μL/well in DMEM (Dulbecco's Modified Eagle's Medium) supplemented with penicillin, streptomycin, glutamine, and 10% fetal bovine serum. After overnight incubation at 37° C., the culture medium was removed and cells were infected with respiratory syncytial virus Long strain at 5000 plaque forming units (PFU)/mL in a 100 μL volume of medium containing 2% fetal bovine serum. The compounds, 100 μL at appropriate dilution, were added to the cells one hour post infection. After incubation for 4 days at 37° C., the plates were stained with MTT solution (3-[4,5-dimethlythiazol-2-yl]-2,5-diphenyltetrazolium bromide) and incubated for 4 hours at 37° C. The media was aspirated from the cells and 100 μL/well of acidified isopropanol (per liter: 900 mL isopropanol, 100 mL Triton X100, and 4 mL conc. HCl) was added. Plates were incubated for 15 minutes at room temperature with shaking, and an optical density (OD 540) reading at 540 nanometer (nm) was obtained. The optical density reading is proportional to the number of viable cells. The increase in the number of viable cells reflects the protective, antiviral activity of the compound. […]
(In general: Protection from cytopathic effect is a common read-out in antiviral testing.)

For the compound `NC(=O)c1ncn([C@@H]2O[C@H](CO)[C@@H](O)[C@H]2O)n1` [Ribavirin], the cell protection (at 2.5 μg/mL (corresponding to 10.2 μM), HEp-2 cells, RSV Long strain) worked out at 100%. Moreover, for the setting “human respiratory syncytial virus, HEp-2 cells infected with RSV Long strain, compound added one hour post infection, 4 days, MTT, read-out: EC50 (concentration that produces 50% cell protection)”, the EC50 was 3000 nM.

(Values after patent US6919331B2, “Substituted 2-methyl-benzimidazole respiratory syncytial virus antiviral agents” (Bristol-Myers Squibb Company, priority 2001, dated 2005).)
